{
  "source": "ChEMBL document CHEMBL4382202",
  "about": "“1-(2-Hydroxybenzoyl)-thiosemicarbazides are promising antimicrobial agents targeting d-alanine-d-alanine ligase in bacterio” (Eur J Med Chem, 2018)",
  "key": {"[1]": {"target": "T1, D-alanine--D-alanine ligase (Enterococcus faecalis (strain ATCC 700802 / V583)) (UniProt Q47758)", "T1 sequence (whole entry)": "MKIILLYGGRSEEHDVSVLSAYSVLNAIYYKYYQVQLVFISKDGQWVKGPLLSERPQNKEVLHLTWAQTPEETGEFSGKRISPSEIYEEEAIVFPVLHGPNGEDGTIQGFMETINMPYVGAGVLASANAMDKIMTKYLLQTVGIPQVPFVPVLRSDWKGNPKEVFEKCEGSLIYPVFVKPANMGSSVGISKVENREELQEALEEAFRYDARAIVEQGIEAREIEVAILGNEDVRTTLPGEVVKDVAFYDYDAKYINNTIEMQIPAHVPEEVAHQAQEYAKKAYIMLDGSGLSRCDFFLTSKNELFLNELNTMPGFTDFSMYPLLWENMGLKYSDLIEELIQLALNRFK", "assay": "Inhibition of Enterococcus faecalis JH2-2 C-terminal 6His-tagged DdlB expressed in Escherichia coli LMG194 at 10 uM preincubated for 30 mins followed by substrate addition and measured after 20 mins by Biomol Green reagent assay relative to control"}, "Staphylococcus aureus": {"test_system": "Staphylococcus aureus", "assay": "Inhibition of Ddl in Staphylococcus aureus ATCC 25923 assessed as increase in [D-Ala]/[D-Ala-D-Ala] ratio at 2 times MIC after 30 mins by LC-MS/MS analysis"}, "[2]": {"target": "5-hydroxytryptamine receptor 1A (Homo sapiens) (UniProt P08908)", "sequence (P08908 whole entry)": "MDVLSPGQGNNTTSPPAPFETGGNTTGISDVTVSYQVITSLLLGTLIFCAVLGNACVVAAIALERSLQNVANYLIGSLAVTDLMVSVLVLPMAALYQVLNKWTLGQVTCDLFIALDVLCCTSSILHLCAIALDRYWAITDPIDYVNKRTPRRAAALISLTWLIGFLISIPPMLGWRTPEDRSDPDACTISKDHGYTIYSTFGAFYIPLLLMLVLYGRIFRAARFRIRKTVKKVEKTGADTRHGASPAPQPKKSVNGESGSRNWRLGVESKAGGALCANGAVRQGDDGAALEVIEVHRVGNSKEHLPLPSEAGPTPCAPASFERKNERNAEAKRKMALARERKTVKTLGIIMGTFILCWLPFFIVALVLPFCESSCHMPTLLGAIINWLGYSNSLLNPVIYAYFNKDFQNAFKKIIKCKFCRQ", "assay": "Displacement of [3H]8-OH-DPAT from recombinant human 5-HT1A receptor at 10 uM after 60 mins by scintillation counting analysis relative to control"}, "[3]": {"target": "Angiotensin-converting enzyme (Homo sapiens) (UniProt P12821)", "sequence (P12821 whole entry)": "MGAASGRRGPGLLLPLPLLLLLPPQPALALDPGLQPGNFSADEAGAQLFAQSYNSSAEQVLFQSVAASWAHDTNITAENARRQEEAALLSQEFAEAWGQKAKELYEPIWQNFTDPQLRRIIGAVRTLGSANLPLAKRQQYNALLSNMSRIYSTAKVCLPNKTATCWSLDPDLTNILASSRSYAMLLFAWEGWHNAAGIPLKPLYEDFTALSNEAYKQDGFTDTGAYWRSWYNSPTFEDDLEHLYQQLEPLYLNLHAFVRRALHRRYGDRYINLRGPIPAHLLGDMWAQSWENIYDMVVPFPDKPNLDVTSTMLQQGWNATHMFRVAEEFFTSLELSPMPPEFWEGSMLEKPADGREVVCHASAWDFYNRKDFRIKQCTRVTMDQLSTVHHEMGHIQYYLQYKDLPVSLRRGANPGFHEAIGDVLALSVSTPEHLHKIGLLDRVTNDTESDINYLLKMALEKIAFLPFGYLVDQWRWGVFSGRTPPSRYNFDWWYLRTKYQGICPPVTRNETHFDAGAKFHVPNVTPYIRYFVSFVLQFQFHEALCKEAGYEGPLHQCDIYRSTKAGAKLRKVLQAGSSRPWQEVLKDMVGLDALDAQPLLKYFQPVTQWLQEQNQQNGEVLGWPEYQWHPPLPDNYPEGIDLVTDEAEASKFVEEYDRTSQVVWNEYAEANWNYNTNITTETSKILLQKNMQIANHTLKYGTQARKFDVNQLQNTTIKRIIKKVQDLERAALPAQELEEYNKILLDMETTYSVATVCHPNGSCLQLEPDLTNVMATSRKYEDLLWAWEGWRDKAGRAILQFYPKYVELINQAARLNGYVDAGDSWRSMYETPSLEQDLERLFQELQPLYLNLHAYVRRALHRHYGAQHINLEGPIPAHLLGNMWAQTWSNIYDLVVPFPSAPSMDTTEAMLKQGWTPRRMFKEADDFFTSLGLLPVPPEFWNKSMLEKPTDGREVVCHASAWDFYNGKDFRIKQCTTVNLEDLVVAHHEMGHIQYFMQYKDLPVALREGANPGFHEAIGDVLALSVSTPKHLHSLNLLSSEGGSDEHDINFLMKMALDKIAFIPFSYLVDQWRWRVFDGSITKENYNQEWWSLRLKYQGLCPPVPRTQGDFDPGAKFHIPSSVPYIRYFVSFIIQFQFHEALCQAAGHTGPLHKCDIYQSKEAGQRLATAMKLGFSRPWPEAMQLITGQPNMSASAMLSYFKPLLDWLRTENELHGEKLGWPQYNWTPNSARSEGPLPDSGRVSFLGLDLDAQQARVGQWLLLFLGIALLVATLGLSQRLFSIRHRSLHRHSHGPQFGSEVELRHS", "assay": "Inhibition of human recombinant ACE at 10 uM using Abz-FRK(Dnp)-P-OH as substrate after 30 mins by fluorimetric analysis relative to control"}, "[4]": {"target": "Arginase-1 (Homo sapiens) (UniProt P05089)", "assay": "Inhibition of human recombinant Arg1 at 10 uM using L-arginine as substrate after 5 mins in presence of [guanidino-14C]-L-arginine by liquid scintillation counting analysis relative to control"}, "[5]": {"target": "Carbonic anhydrase 2 (Homo sapiens) (UniProt P00918)", "assay": "Inhibition of human carbonic anhydrase 2 at 10 uM using 4-nitrophenyl acetate as substrate after 20 mins by spectrophotometric analysis relative to control"}, "[6]": {"target": "Prostaglandin G/H synthase 1 (Homo sapiens) (UniProt P23219)", "sequence (P23219 whole entry)": "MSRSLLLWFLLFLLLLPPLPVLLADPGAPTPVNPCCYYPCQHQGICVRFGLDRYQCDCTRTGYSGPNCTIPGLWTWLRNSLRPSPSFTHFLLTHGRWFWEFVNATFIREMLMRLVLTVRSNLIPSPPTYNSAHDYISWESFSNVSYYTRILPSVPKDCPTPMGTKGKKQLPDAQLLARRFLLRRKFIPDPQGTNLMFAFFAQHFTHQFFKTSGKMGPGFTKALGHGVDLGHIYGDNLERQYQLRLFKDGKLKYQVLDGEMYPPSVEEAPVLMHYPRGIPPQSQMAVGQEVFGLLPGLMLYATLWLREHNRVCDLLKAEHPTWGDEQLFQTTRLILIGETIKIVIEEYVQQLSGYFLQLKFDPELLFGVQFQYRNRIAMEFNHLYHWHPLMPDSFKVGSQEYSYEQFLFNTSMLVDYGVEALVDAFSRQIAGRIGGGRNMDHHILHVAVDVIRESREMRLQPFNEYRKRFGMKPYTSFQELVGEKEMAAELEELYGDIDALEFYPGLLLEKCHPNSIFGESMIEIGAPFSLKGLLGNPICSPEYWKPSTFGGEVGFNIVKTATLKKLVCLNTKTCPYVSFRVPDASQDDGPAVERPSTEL", "assay": "Inhibition of human recombinant COX1 at 10 uM using arachidonic acid as substrate after 3 mins by fluorimetric analysis relative to control"}, "[7]": {"target": "DNA gyrase (Staphylococcus aureus) (UniProt P0A0K8+P20831)", "sequence (P0A0K8 2-644 limits assumed)": "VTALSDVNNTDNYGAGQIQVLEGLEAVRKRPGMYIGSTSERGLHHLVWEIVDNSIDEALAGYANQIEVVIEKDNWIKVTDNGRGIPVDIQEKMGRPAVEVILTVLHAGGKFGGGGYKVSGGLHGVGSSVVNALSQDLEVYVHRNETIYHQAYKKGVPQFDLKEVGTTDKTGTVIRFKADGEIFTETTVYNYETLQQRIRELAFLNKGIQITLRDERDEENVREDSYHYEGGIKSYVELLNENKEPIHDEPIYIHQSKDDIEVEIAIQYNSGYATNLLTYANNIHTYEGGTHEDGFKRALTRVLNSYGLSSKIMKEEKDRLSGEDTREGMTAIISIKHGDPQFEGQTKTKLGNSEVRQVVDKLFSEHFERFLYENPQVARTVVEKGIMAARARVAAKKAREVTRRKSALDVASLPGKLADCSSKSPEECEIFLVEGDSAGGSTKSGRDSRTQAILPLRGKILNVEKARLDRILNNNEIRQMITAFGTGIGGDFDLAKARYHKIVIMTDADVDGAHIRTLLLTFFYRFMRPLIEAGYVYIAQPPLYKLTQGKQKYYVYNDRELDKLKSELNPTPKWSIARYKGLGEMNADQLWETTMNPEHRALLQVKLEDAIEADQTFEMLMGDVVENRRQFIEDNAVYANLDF", "sequence (P20831 whole entry partner)": "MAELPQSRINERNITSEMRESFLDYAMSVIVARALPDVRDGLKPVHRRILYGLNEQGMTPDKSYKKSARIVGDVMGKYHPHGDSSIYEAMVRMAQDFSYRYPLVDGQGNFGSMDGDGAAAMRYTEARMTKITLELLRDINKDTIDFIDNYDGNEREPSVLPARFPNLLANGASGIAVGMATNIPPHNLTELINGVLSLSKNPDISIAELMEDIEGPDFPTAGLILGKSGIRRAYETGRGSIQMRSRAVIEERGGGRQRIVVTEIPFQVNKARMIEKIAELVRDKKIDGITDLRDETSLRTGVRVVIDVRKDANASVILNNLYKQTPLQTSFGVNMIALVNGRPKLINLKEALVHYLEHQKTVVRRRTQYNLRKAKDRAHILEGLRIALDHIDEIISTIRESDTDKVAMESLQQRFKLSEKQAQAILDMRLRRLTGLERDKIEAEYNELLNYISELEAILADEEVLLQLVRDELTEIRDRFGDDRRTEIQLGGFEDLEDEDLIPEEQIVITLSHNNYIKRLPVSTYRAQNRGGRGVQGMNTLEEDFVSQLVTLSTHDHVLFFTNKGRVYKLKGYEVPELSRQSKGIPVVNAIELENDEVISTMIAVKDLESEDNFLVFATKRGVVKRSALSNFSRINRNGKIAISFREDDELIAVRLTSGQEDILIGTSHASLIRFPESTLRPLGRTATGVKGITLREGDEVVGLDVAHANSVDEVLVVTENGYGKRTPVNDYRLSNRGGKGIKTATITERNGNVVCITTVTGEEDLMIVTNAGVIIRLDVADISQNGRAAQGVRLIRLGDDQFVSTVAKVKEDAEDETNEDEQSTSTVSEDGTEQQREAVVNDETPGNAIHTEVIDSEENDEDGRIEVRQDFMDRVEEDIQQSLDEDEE", "assay": "Inhibition of Staphylococcus aureus DNA gyrase at 10 uM using supercoiled pBR322 DNA as substrate after 1 hr by ethidium bromide staining-based agarose gel electrophoresis relative to control", "format": "protein-complex assay"}, "[8]": {"target": "DNA gyrase (Escherichia coli) (UniProt P0AES6+P0AES4)", "assay": "Inhibition of Escherichia coli DNA gyrase at 10 uM using supercoiled pBR322 DNA as substrate after 1 hr by ethidium bromide staining-based agarose gel electrophoresis relative to control", "format": "protein-complex assay"}, "[9]": {"target": "Indoleamine 2,3-dioxygenase 1 (Homo sapiens) (UniProt P14902)", "assay": "Inhibition of human IDO at 10 uM using L-tryptophan as substrate after 30 mins by Ehrlich's reagent based assay relative to control"}, "[10]": {"target": "Tyrosine-protein kinase Lck (Homo sapiens) (UniProt P06239)", "sequence (P06239 2-509 limits assumed)": "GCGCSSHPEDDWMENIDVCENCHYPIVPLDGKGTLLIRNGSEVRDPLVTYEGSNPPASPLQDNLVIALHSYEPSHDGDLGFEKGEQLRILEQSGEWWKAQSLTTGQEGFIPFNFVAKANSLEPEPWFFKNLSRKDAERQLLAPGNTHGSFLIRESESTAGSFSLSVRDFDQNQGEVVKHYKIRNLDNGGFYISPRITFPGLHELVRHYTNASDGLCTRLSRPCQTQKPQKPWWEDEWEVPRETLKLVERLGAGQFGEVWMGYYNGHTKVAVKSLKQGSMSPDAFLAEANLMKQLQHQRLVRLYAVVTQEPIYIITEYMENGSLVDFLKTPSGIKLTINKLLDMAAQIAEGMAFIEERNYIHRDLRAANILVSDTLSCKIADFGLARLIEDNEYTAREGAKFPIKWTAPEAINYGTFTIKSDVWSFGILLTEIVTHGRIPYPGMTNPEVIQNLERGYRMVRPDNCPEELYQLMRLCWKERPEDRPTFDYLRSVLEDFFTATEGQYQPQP", "assay": "Inhibition of human recombinant Lck at 10 uM using Ulight-Poly GAT[EAY(1:1:1)]n as substrate after 10 mins by LANCE analysis relative to control"}, "[11]": {"target": "L-lactate dehydrogenase A chain (Homo sapiens) (UniProt P00338)", "assay": "Inhibition of human recombinant full-length LDHA at 10 uM using sodium pyruvate as substrate after 60 mins by resazurin dye-based assay relative to control"}, "[12]": {"target": "cGMP-inhibited 3',5'-cyclic phosphodiesterase 3A (Homo sapiens) (UniProt Q14432)", "assay": "Inhibition of human recombinant PDE3A using [3H]cAMP at 10 uM after 20 mins by scintillation counting analysis relative to control"}, "[13]": {"target": "D-3-phosphoglycerate dehydrogenase (Homo sapiens) (UniProt O43175)", "sequence (O43175 whole entry, the tested form may be a part)": "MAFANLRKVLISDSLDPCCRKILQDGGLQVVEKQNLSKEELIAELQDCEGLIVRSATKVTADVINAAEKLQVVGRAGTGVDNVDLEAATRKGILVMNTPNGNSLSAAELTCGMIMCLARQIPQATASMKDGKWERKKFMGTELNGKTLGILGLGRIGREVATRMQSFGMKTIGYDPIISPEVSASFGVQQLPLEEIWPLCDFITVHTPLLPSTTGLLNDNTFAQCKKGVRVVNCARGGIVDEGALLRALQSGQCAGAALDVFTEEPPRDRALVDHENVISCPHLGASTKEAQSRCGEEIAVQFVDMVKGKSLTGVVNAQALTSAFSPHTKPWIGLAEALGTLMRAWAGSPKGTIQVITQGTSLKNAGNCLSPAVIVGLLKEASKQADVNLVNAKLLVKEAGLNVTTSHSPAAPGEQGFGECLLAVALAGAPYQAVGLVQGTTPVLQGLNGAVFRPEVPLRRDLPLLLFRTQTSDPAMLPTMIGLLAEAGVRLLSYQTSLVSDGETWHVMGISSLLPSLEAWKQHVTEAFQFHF", "assay": "Inhibition of human recombinant C-terminal His-tagged PHGDH (1 to 533 residues) expressed in Escherichia coli at 10 uM using 3-phosphoglycerate as substrate relative to control"}, "[14]": {"target": "Secretory phospholipase A2 (Homo sapiens) (UniProt Q5R387+Q9NZK7+P14555+Q9BZM2+Q9UNK4+P39877+O15496+P04054+Q9NZ20+Q9BZM1+Q9BX93)", "assay": "Inhibition of human sPLA2 at 10 uM relative to control", "format": "protein assay"}, "[15]": {"target": "Peroxisome proliferator-activated receptor alpha (Homo sapiens) (UniProt Q07869)", "assay": "Displacement of [3H]WY 14643 from human recombinant PPARalpha receptor at 10 uM at 10 uM after 120 mins by scintillation counting analysis relative to control"}, "[16]": {"target": "Topoisomerase IV (Staphylococcus aureus) (UniProt P0C1U9+P0C1S7)", "assay": "Inhibition of Staphylococcus aureus DNA topoisomerase 4 at 10 uM using interlinked kDNA as substrate after 1 hr by ethidium bromide staining-based agarose gel electrophoresis relative to control", "format": "protein-complex assay"}, "Escherichia coli [17]": {"test_system": "Escherichia coli", "assay": "Inhibition of Escherichia coli DNA topoisomerase 4 at 10 uM using interlinked kDNA as substrate after 1 hr by ethidium bromide staining-based agarose gel electrophoresis relative to control"}, "[18]": {"target": "T1, D-alanine--D-alanine ligase (Enterococcus faecalis (strain ATCC 700802 / V583))", "assay": "Reversible inhibition of Enterococcus faecalis JH2-2 C-terminal 6His-tagged DdlB expressed in Escherichia coli LMG194 at 3 uM preincubated for 30 mins followed by 10 times dilution followed by 20 mins incubation with substrate by Biomol Green reagent assay"}, "[19]": {"target": "T1, D-alanine--D-alanine ligase (Enterococcus faecalis (strain ATCC 700802 / V583))", "assay": "Mixed non-competitive type inhibition of Enterococcus faecalis JH2-2 C-terminal 6His-tagged DdlB expressed in Escherichia coli LMG194 at 1 to 10 uM preincubated for 30 mins followed increasing substrate and fixed ATP addition and measured after 20 mins by Biomol Green reagent assay"}, "Klebsiella pneumoniae": {"test_system": "Klebsiella pneumoniae", "assay": "Antibacterial activity against Klebsiella pneumoniae ATCC 700603 after 18 to 24 hrs by microdilution assay", "format": "functional, organism-based"}, "Escherichia coli [20]": {"test_system": "Escherichia coli", "assay": "Antibacterial activity against Escherichia coli ATCC 25922 after 18 to 24 hrs by microdilution assay", "format": "functional, organism-based"}, "[21]": {"target": "T1, D-alanine--D-alanine ligase (Enterococcus faecalis (strain ATCC 700802 / V583))", "assay": "Inhibition of Enterococcus faecalis JH2-2 C-terminal 6His-tagged DdlB expressed in Escherichia coli LMG194 assessed as Vmax/Km of D-Ala at 1 uM by Biomol Green reagent assay (reference value: 11.02 /min)"}, "[22]": {"target": "T1, D-alanine--D-alanine ligase (Enterococcus faecalis (strain ATCC 700802 / V583))", "assay": "Inhibition of Enterococcus faecalis JH2-2 C-terminal 6His-tagged DdlB expressed in Escherichia coli LMG194 assessed as Vmax/Km of D-Ala at 10 uM by Biomol Green reagent assay (reference value: 11.02 /min)"}, "[23]": {"target": "T1, D-alanine--D-alanine ligase (Enterococcus faecalis (strain ATCC 700802 / V583))", "assay": "Inhibition of Enterococcus faecalis JH2-2 C-terminal 6His-tagged DdlB expressed in Escherichia coli LMG194 assessed as Vmax/Km of ATP at 10 uM by Biomol Green reagent assay (reference value: 0.3 /min)"}},
  "note": "Active and inactive are the calls of the source. The calls are words filed in the database; no cut-off is given here.",
  "data": [
    {"smiles": "O=C(NNC(=S)Nc1ccc(Cl)c(Cl)c1)c1ccccc1O", "values": [
      {"measurement": "inhibition", "setting": "[1]", "result": "> 30", "unit": "%"},
      {"measurement": "inhibition", "setting": "Staphylococcus aureus", "result": "Active"},
      {"measurement": "inhibition", "setting": "[2]", "result": "< 30", "unit": "%"},
      {"measurement": "inhibition", "setting": "[3]", "result": "< 30", "unit": "%"},
      {"measurement": "inhibition", "setting": "[4]", "result": "< 30", "unit": "%"},
      {"measurement": "inhibition", "setting": "[5]", "result": "< 30", "unit": "%"},
      {"measurement": "inhibition", "setting": "[6]", "result": "< 30", "unit": "%"},
      {"measurement": "inhibition", "setting": "[7]", "result": "< 30", "unit": "%"},
      {"measurement": "inhibition", "setting": "[8]", "result": "< 30", "unit": "%"},
      {"measurement": "inhibition", "setting": "[9]", "result": "< 30", "unit": "%"},
      {"measurement": "inhibition", "setting": "[10]", "result": "< 30", "unit": "%"},
      {"measurement": "inhibition", "setting": "[11]", "result": "< 30", "unit": "%"},
      {"measurement": "inhibition", "setting": "[12]", "result": "< 30", "unit": "%"},
      {"measurement": "inhibition", "setting": "[13]", "result": "< 30", "unit": "%"},
      {"measurement": "inhibition", "setting": "[14]", "result": "< 30", "unit": "%"},
      {"measurement": "inhibition", "setting": "[15]", "result": "< 30", "unit": "%"},
      {"measurement": "inhibition", "setting": "[16]", "result": "< 30", "unit": "%"},
      {"measurement": "inhibition", "setting": "Escherichia coli [17]", "result": "< 30", "unit": "%"},
      {"measurement": "inhibition", "setting": "[18]", "result": "Active"},
      {"measurement": "inhibition", "setting": "[19]", "result": "Active"},
      {"measurement": "MIC", "setting": "Klebsiella pneumoniae", "result": "inactive"},
      {"measurement": "MIC", "setting": "Escherichia coli [20]", "result": "inactive"},
      {"measurement": "Vmax/Km", "setting": "[21]", "result": 6.93, "unit": "min⁻¹"},
      {"measurement": "Vmax/Km", "setting": "[22]", "result": 4.69, "unit": "min⁻¹"},
      {"measurement": "Vmax/Km", "setting": "[23]", "result": 0.1, "unit": "min⁻¹"}
    ]}
  ]
}
